Data on 26 compounds can be found in patent US20250387403A1, “SELECTIVE SIGMA-2 RECEPTOR LIGANDS AS MODULATORS OF TMEM97” (BOARD OF REGENTS, THE UNIVERSITY OF TEXAS SYSTEM, priority 2022, published 2025).

Data set [1] has as its target T1, σ2R/TMEM97 (Homo sapiens, UniProt Q5BJF2).
Method: (§1) Ki values are calculated from best-fit IC50 determinations performed in triplicate.
(§2) The binding affinities (Ki) of all synthetic compounds for σ2R/TMEM97 and σ1R were determined at the Psychoactive Drug Screening Program. Prior to the identification of σ2R as TMEM97, Ki values were measured using σ2R sourced from rat PC12 cells and σ1R sourced from guinea pig brain, but subsequently σ2R/TMEM97 and σ1R binding isotherms were determined using human protein obtained by transfection in HEK293T cells.
Data set [2] concerns primary cortical neurons transfected with plasmids expressing mHTT (Htt-N586-82Q). The data set is described as follows: mHTT-induced toxicity in transfected primary cortical neurons (HD cell model). In kind it is cell-based. As to conditions: for neuroprotection against mHTT-induced neuronal toxicity: concentrations 0.01-10 μM; for intrinsic toxicity: primary cortical neurons. As for the experimental part:
Toward testing the hypothesis that selective modulators of σ2R/TMEM97 have neuroprotective attributes in Huntington's disease, a small panel of compounds were evaluated with differing affinities and selectivities for σ2R/TMEM97 in a primary neuron model of HD. […] In the present disclosure, these compounds are tested in an HD cell model to assess the effects of these compounds upon mHTT-induced neuronal toxicity. Briefly, primary neurons were co-transfected with plasmid expression of a 586 N-terminal Htt polypeptide with either normal Q (Htt-N586-22Q) or expanded Q (Htt-N586-82Q) repeats and green fluorescent protein (GFP).
Stock solutions of σ2R/TMEM97 modulators were prepared by dissolving the compound in DMSO to a concentration of 10 mM. For the in vitro assays, the stock solution was diluted with culture medium (1:1000) to a working concentration of 10 μM of σ2R/TMEM97 modulator. Serial dilutions were then performed using culture medium to prepare other concentrations of the modulator. The final DMSO concentration is less than 0.1%. The vehicle group was performed using 0.1% DMSO in culture medium.
To assess the possible neuroprotective effects of selective σ2R/TMEM97 modulators in neurodegenerative processes associated with HD, a cell model was used that has been previously described (Arbez et al, 2017).

Data set [3] addresses σ2R/TMEM97 (Rattus norvegicus (Rat), UniProt Q5U3Y7). Put plainly: Receptor binding assay (PDSP), rat σ2R/TMEM97 (PC12 cells), [3H]-ditolylguanidine competition.
Method: as §1, §2
For data set [4], the target named is T1, σ2R/TMEM97. The data set is described as follows: Receptor binding assay (PDSP), human σ2R/TMEM97, [3H]-ditolylguanidine competition. As to conditions: for affinity (Ki) for σ2R/TMEM97, in words: human σ2R/TMEM97; for selectivity for σ2R/TMEM97 vs σ1R, in words: human σ2R/TMEM97 vs human σ1R.
Method: as §1, §2
For data set [5], the system named is spared nerve injury (SNI) model. Put plainly: Spared nerve injury (SNI) neuropathic pain model. In kind it is in vivo, mice.
In data set [6] the test system is integrated stress response. The data set is described as follows: Integrated stress response. The class given is cell-based.
In a further data set the test system is neurite outgrowth. The data set is described as follows: Neurite outgrowth. In kind it is cell-based.
Data set [7] deals with spared nerve injury (SNI) model. The conditions noted are these: earlier studies (Sahn et al, 2017); cited from earlier work.

SMILES strings stand for the structures.

T1 sequence (Q5BJF2 whole entry, looked up): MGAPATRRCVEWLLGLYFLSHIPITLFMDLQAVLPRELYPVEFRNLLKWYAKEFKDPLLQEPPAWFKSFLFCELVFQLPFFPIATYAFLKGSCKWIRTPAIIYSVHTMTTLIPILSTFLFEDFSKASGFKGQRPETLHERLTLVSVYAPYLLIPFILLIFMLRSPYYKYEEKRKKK
σ2R/TMEM97 (Rattus norvegicus (Rat), UniProt Q5U3Y7), sequence (Q5U3Y7 whole entry): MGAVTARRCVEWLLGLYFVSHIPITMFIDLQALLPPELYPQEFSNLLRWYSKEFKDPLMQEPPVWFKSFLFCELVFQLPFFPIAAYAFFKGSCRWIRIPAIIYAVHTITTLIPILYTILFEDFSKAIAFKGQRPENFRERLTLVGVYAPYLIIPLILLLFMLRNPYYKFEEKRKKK

As to `O=C(C1CCNCC1)N1CC[C@H]2CC1c1cc(-c3cccc(OC(F)(F)F)c3)ccc12`, at σ2R/TMEM97 [1], the Ki was 37.1 nM.
Same read-out and setting: with `O=C(C1CCN(CCO)CC1)N1CCC2CC1c1cc(-c3cccc(C(F)(F)F)c3)ccc12` (stereo not drawn) the figure was 32.3 nM; with `OCCN1CCC2CC1c1cc(-c3ccc(C(F)(F)F)cc3)ccc12` (stereo not drawn), 32 nM; with `FC(F)(F)c1ccc(-c2ccc3c(c2)C2CC3CCN2C2CCCC2)cc1` (stereo not drawn), 82.3 nM.
Same read-out and setting: then `FC(F)(F)c1ccc(-c2ccc3c(c2)C2CC3CCN2C2CCC2)cc1` (stereo not drawn), with 213 nM; and `CCCN1CCC2CC1c1cc(-c3cccc(C(F)(F)F)c3)ccc12` (stereo not drawn), with 112 nM; and `O=C(C1CCNCC1)N1CCC2CC1c1cc(-c3ccc(C(F)(F)F)cc3)ccc12` (stereo not drawn), with 6.8 nM.
`CCCN1CCC(C(=O)N2CCC3CC2c2cc(-c4ccc(C(F)(F)F)cc4)ccc23)CC1` (stereo not drawn) returned a Ki on σ2R/TMEM97 [1] of 1.3 nM.
On the same count and under the same terms, then `OC(CF)CN1CCC2CC1c1cc(-c3ccc(C(F)(F)F)cc3)ccc12` (stereo not drawn), with 34 nM.
On to `FC(F)(F)c1cccc(-c2ccc3c(c2)C2CC3CCN2)c1` (stereo not drawn), for which the inhibition constant (Ki) at σ2R/TMEM97 [1] turned out to be 57 nM.
`O=C(C1CCNCC1)N1CCC2CC1c1cc(-c3cccc(C(F)(F)F)c3)ccc12` (stereo not drawn) yielded a Ki on σ2R/TMEM97 [1] of 5.5 nM.
In the case of `CN1CCC(C(=O)N2CCC3CC2c2cc(-c4cccc(C(F)(F)F)c4)ccc23)CC1` (stereo not drawn), the Ki on σ2R/TMEM97 [1] was determined as 2.3 nM.
Same read-out and setting: then `CC(=O)N[C@H]1CC[C@H](N2CCC3CC2c2cc(-c4cccc(C(F)(F)F)c4)ccc23)CC1` (stereo partly drawn), with 4.1 nM; and `O=C(C1CNC1)N1CCC2CC1c1cc(-c3cccc(C(F)(F)F)c3)ccc12` (stereo not drawn), with 16 nM.
The same measure, in the same setting: then `O=C(N1CCC2(CC1)CN(CCO)C2)N1CCC2C[C@H]1c1cc(-c3ccc(C(F)(F)F)cc3)ccc12`, with 91.6 nM; and `O=C(N1CC2(CN(CCO)C2)C1)N1CCC2C[C@H]1c1cc(-c3ccc(C(F)(F)F)cc3)ccc12`, with 441 nM.
For `O=C(N1CC2CC(C1)N2CCO)N1CCC2C[C@H]1c1cc(-c3ccc(C(F)(F)F)cc3)ccc12`, the affinity at σ2R/TMEM97 [1], expressed as Ki, was 62.9 nM.
Still for that read-out and setting: then `CN(C)CCC(=O)N1CCC2CC1c1cc(-c3cccc(C(F)(F)F)c3)ccc12` (stereo not drawn), with 8.7 nM; and `FC(F)(F)Oc1cccc(-c2ccc3c(c2)C2CC3CCN2C2CCCCC2)c1` (stereo not drawn), with 79 nM; and `CN(CCO)CCC(=O)N1CCC2CC1c1cc(-c3cccc(C(F)(F)F)c3)ccc12` (stereo not drawn), with 4.3 nM.
`CN1CCN(c2ccc3c(c2)C2CC3CCN2C(=O)OCc2ccc(F)cc2)CC1` (racemic) [AMA-1127, (±)-4-Fluorobenzyl-8-(4-methylpiperazin-1-yl)-1,3,4,5-tetrahydro-2H-1,5-methanobenzo[c]azepine-2-carboxylate]: in data set [2], the “neuroprotection against mHTT-induced neuronal toxicity” value was “significant neuroprotection in a dose dependent fashion” and the intrinsic toxicity result is “None of these compounds appear to exhibit any intrinsic toxicity”. Further, the “affinity (Ki) for σ2R/TMEM97, in words” value at σ2R/TMEM97 [3] (rat σ2R/TMEM97) is given as “high affinity”. Further, at σ2R/TMEM97 [3] (rat σ2R/TMEM97 vs guinea pig σ1R), the “selectivity for σ2R/TMEM97 vs σ1R, in words” value (from here on “selectivity for σ2R/TMEM97”) is “good selectivity”.
In the case of `FC(F)(F)c1ccc(-c2ccc3c(c2)C2CC3CCCN2C2CCCCC2)cc1` (racemic) [BEA-1687, (±)-2-Cyclohexyl-9-(4-(trifluoromethyl)phenyl)-1,2,3,4,5,6-hexahydro-1,6-methanobenzo[c]azocine], in data set [2], the “neuroprotection against mHTT-induced neuronal toxicity” value was “significant neuroprotection in a dose dependent fashion” and the intrinsic toxicity result is given as “None of these compounds appear to exhibit any intrinsic toxicity”. Also, at σ2R/TMEM97 [4], the “affinity (Ki) for σ2R/TMEM97, in words” value is “high affinity” and the “selectivity for σ2R/TMEM97” value is “good”.
For `O=C(C1CCN(CCO)CC1)N1CCC2CC1c1cc(-c3ccc(C(F)(F)F)cc3)ccc12` (racemic) [EES-1686, (±)-(1-(2-Hydroxyethyl)piperidin-4-yl)(8-(4-(trifluoromethyl)phenyl)-1,3,4,5-tetrahydro-2H-1,5-methanobenzo[c]azepin-2-yl)methanone], in data set [2], the “neuroprotection against mHTT-induced neuronal toxicity” value is recorded as “significant neuroprotection in a dose dependent fashion” and the intrinsic toxicity entry was “None of these compounds appear to exhibit any intrinsic toxicity”. In data set [2] (lowest of the series), the “concentration providing significant neuroprotection” value turned out to be 10 nM. Moreover, on σ2R/TMEM97 [4], the “affinity (Ki) for σ2R/TMEM97, in words” value is reported as “high affinity” and the “selectivity for σ2R/TMEM97” value was “good”.
`CCCN1CCC(C(=O)N2CCC3CC2c2cc(-c4ccc(C(F)(F)F)cc4)ccc23)CC1` (racemic) [JJS-1678, (±)-(1-Propylpiperidin-4-yl)(8-(4-(trifluoromethyl)phenyl)-1,3,4,5-tetrahydro-2H-1,5-methanobenzo[c]azepin-2-yl)methanone]: at σ2R/TMEM97 [4], the “affinity (Ki) for σ2R/TMEM97, in words” value is listed as “high affinity” and the “selectivity for σ2R/TMEM97” value is listed as “good”.
Regarding `OCCCN1CC[C@@H]2C[C@H]1c1cc(-c3ccc(C(F)(F)F)cc3)ccc12` [FEM-1689, 3-((1S,5R)-8-(4-(Trifluoromethyl)phenyl)-1,3,4,5-tetrahydro-2H-1,5-methanobenzo[c]azepin-2-yl) propan-1-ol], the “analgesic effect after SNI” value in data set [5] (global σ2R/TMEM97 knockout mouse) is reported as “fails to produce an analgesic effect”. Also, in data set [5] (wild-type male and female mice), the “mechanical hypersensitivity after SNI” value is on record as “reverses mechanical hypersensitivity”. The “effect on the integrated stress response” value in data set [6] is reported as “inhibits the integrated stress response”. The “effect on neurite outgrowth” value in the data set with neurite outgrowth was “promotes neurite outgrowth”.
As for `OCCCN1CCCC2CC1c1cc(-c3ccc(C(F)(F)F)cc3)ccc12` (stereo not drawn) [UKH-1114], in data set [2], the “neuroprotection against mHTT-induced neuronal toxicity” value was “significant neuroprotection in a dose dependent fashion” and the intrinsic toxicity entry is on record as “None of these compounds appear to exhibit any intrinsic toxicity”. For the same compound, in data set [7], the “pain relief in the SNI model” value was “relieved pain”.

What is called Ki is a measure of affinity in units of concentration, obtained from inhibition or displacement. The low end stands for a stronger hold on the target, the high end for a looser hold on the target.
